Legend:
oilseed rape = assay: Test C postemergence; assay type: in vivo, Brassica napus; details: Brassica napus, post-emergence
Summary of the method: (§1)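 Injury was assessed visually against controls 13 to 15 days after application, with 0 meaning no effect and 100 full control; missing entries are shown as a dash. Preemergence sprays hit seeded loam–sand soil, postemergence sprays hit 1- to 4-leaf plants.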

barnyardgrass = assay: Test A postemergence; assay type: in vivo, Echinochloa crus-galli; details: Echinochloa crus-galli, post-emergence, 240 h
Summary of the method: (§2)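 Injury scores run from 0, no effect, to 100, complete control, judged by eye against untreated plants roughly 10 days after treatment. Chemicals carried a surfactant in a non-phytotoxic solvent and went onto loam–sand soil preemergence or onto one- to two-leaf seedlings postemergence.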

waterhemp = assay: Test C postemergence; assay type: in vivo, Amaranthus rudis; details: Amaranthus tuberculatus, post-emergence
Summary of the method: as §1

johnsongrass = assay: Test C postemergence; assay type: in vivo, Sorghum halepense; details: Sorghum halepense, post-emergence
Summary of the method: as §1

corn [1] = assay: Test A postemergence; assay type: in vivo, Zea mays; details: Zea mays, post-emergence, 240 h
Summary of the method: as §2

giant foxtail [2] = assay: Test C postemergence; assay type: in vivo, Setaria faberii; details: Setaria faberi, post-emergence
Summary of the method: as §1

morningglory = assay: Test C postemergence; assay type: in vivo, Ipomoea coccinea; details: Ipomoea, post-emergence
Summary of the method: as §1

Heteranthera limosa = assay: Test B flooded paddy test; assay type: in vivo; details: Heteranthera limosa, Flood, 250 g ai/ha; 0 to 100 scale where 0 is no effect and 100 is complete control; read-out: Plant response rating, Ducksalad
Summary of the method: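 Scores from 0 (no effect) to 100 (complete control) are visual comparisons with controls, taken 13 to 15 days after compound was applied into floodwater 3 cm deep around 2-leaf plants.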

pigweed = assay: Test C postemergence; assay type: in vivo, Amaranthus retroflexus; details: Amaranthus retroflexus, post-emergence
Summary of the method: as §1

giant foxtail [3] = assay: Test A postemergence; assay type: in vivo, Setaria faberii; details: Setaria faberi, post-emergence, 240 h
Summary of the method: as §2

velvetleaf = assay: Test C postemergence; assay type: in vivo, Abutilon theophrasti; details: Abutilon theophrasti, post-emergence
Summary of the method: as §1

corn [4] = assay: Test C postemergence; assay type: in vivo, Zea mays; details: Zea mays, post-emergence
Summary of the method: as §1

Fc1cccc(Oc2ncc(Cl)cn2)c1-n1cc(C(F)F)nn1 [Compound 141, 5-chloro-2-[2-[4-(difluoromethyl)-1H-1,2,3-triazol-1-yl]-3-fluorophenoxy]pyrimidine]
plant injury at 16 g/ha (oilseed rape; 16 g ai/ha, postemergence, 0 is no effect, 100 is complete control, read-out: Plant response rating (0 to 100), Oilseed Rape): 50% | plant injury at 125 g/ha (oilseed rape; 125 g ai/ha, postemergence, visual rating, scale 0 to 100 (0 no effect, 100 complete control), read-out: Plant response rating, Oilseed Rape): 98% | plant injury at 62 g/ha (oilseed rape; Postemergence, 62 g ai/ha, scale 0 to 100 (0 no effect, 100 complete control), read-out: Plant response rating, Oilseed Rape): 95% | pest or weed control at 31 g/ha (barnyardgrass; 31 g ai/ha, 0 to 100 scale, 0 no effect, 100 complete control, read-out: Plant response rating, Barnyardgrass): 60% | pest or weed control at 125 g/ha (barnyardgrass; 125 g ai/ha, 0 to 100 scale where 0 is no effect and 100 is complete control, read-out: Barnyardgrass plant response rating): 100% | pest or weed control at 16 g/ha (waterhemp; 16 g ai/ha, postemergence, 0 is no effect, 100 is complete control, read-out: Plant response rating (0 to 100), Waterhemp): 85% | pest or weed control at 125 g/ha (waterhemp; 125 g ai/ha, postemergence, visual rating, scale 0 to 100 (0 no effect, 100 complete control), read-out: Plant response rating, Waterhemp): 100% | pest or weed control at 62 g/ha (waterhemp; Postemergence, 62 g ai/ha, scale 0 to 100 (0 no effect, 100 complete control), read-out: Plant response rating, Waterhemp): 100% | pest or weed control at 16 g/ha (johnsongrass; 16 g ai/ha, postemergence, 0 is no effect, 100 is complete control, read-out: Plant response rating (0 to 100), Johnsongrass): 5% | pest or weed control at 125 g/ha (johnsongrass; 125 g ai/ha, postemergence, visual rating, scale 0 to 100 (0 no effect, 100 complete control), read-out: Plant response rating, Johnsongrass): 30% | pest or weed control at 62 g/ha (johnsongrass; Postemergence, 62 g ai/ha, scale 0 to 100 (0 no effect, 100 complete control), read-out: Plant response rating, Johnsongrass): 10% | Corn plant response rating (crop injury, 0 = no effect, 100 = complete kill) at 31 g/ha (corn [1]; 31 g ai/ha, 0 to 100 scale, 0 no effect, 100 complete control): 30% | plant injury at 125 g/ha (corn [1]; 125 g ai/ha, 0 to 100 scale where 0 is no effect and 100 is complete control, read-out: Corn plant response rating): 60% | pest or weed control at 16 g/ha (giant foxtail [2]; 16 g ai/ha, postemergence, 0 is no effect, 100 is complete control, read-out: Plant response rating (0 to 100), Foxtail, Giant): 10% | pest or weed control at 125 g/ha (giant foxtail [2]; 125 g ai/ha, postemergence, visual rating, scale 0 to 100 (0 no effect, 100 complete control), read-out: Plant response rating, Foxtail, Giant): 70% | pest or weed control at 62 g/ha (giant foxtail [2]; Postemergence, 62 g ai/ha, scale 0 to 100 (0 no effect, 100 complete control), read-out: Plant response rating, Foxtail, Giant): 45% | pest or weed control at 16 g/ha (morningglory; 16 g ai/ha, postemergence, 0 is no effect, 100 is complete control, read-out: Plant response rating (0 to 100), Morningglory): 85% | pest or weed control at 125 g/ha (morningglory; 125 g ai/ha, postemergence, visual rating, scale 0 to 100 (0 no effect, 100 complete control), read-out: Plant response rating, Morningglory): 100% | pest or weed control at 62 g/ha (morningglory; Postemergence, 62 g ai/ha, scale 0 to 100 (0 no effect, 100 complete control), read-out: Plant response rating, Morningglory): 95% | pest or weed control at 250 g/ha (Heteranthera limosa): 100% | pest or weed control at 16 g/ha (pigweed; 16 g ai/ha, postemergence, 0 is no effect, 100 is complete control, read-out: Plant response rating (0 to 100), Pigweed): 90% | pest or weed control at 125 g/ha (pigweed; 125 g ai/ha, postemergence, visual rating, scale 0 to 100 (0 no effect, 100 complete control), read-out: Plant response rating, Pigweed): 98% | pest or weed control at 62 g/ha (pigweed; Postemergence, 62 g ai/ha, scale 0 to 100 (0 no effect, 100 complete control), read-out: Plant response rating, Pigweed): 100% | pest or weed control at 31 g/ha (giant foxtail [3]; 31 g ai/ha, 0 to 100 scale, 0 no effect, 100 complete control, read-out: Plant response rating, Foxtail, Giant): 90% | pest or weed control at 125 g/ha (giant foxtail [3]; 125 g ai/ha, 0 to 100 scale where 0 is no effect and 100 is complete control, read-out: Foxtail, Giant plant response rating): 100% | pest or weed control at 16 g/ha (velvetleaf; 16 g ai/ha, postemergence, 0 is no effect, 100 is complete control, read-out: Plant response rating (0 to 100), Velvetleaf): 80% | pest or weed control at 125 g/ha (velvetleaf; 125 g ai/ha, postemergence, visual rating, scale 0 to 100 (0 no effect, 100 complete control), read-out: Plant response rating, Velvetleaf): 100% | pest or weed control at 62 g/ha (velvetleaf; Postemergence, 62 g ai/ha, scale 0 to 100 (0 no effect, 100 complete control), read-out: Plant response rating, Velvetleaf): 100% | plant injury at 16 g/ha (corn [4]; 16 g ai/ha, postemergence, 0 is no effect, 100 is complete control, read-out: Plant response rating (0 to 100), Corn): 5% | Corn plant response rating (crop injury, 0 = no effect, 100 = complete kill) at 125 g/ha (corn [4]; 125 g ai/ha, postemergence, visual rating, scale 0 to 100 (0 no effect, 100 complete control)): 20% | Corn plant response rating (crop injury, 0 = no effect, 100 = complete kill) at 62 g/ha (corn [4]; Postemergence, 62 g ai/ha, scale 0 to 100 (0 no effect, 100 complete control)): 5%

— US9695155B2, “Herbicidal substituted pyrimidinyloxy benzene compounds” (E. I. DU PONT DE NEMOURS AND COMPANY, priority 2013, dated 2017)
